Assay results published in ChEMBL document CHEMBL4270549, “Influence of the C-5 substitution in polysubstituted pyrimidines on inhibition of prostaglandin E2 production” (Eur J Med Chem, 2018).
pIC50: −log10 of the molar value. Active and inactive are the calls of the source. The calls are words filed in the database; no cut-off is given here.

How the values were obtained:
Mus musculus = species on record: Mus musculus; assay: Inhibition of LPS-induced PGE2 production in C57BL6 mouse peritoneal cells at 50 uM measured at 5 hrs time interval by ELISA; format: functional
[1] = Cytotoxicity against C57BL6 mouse peritoneal cells assessed as cell viability measured at 5 hrs time interval by LDH release assay (reference value: 98.9 +/- 1.6%); format: cell-based; details: read-out: Activity
[2] = Inhibition of LPS-induced PGE2 production in C57BL6 mouse peritoneal cells measured at 5 hrs time interval by ELISA; format: functional; details: C57BL6, 5 h

Row | pIC50 [2] | Structure (SMILES) | inhibition (Mus musculus) | viability at 5 h [1] [%]
1 |  | CCCCc1c(Cl)nc(N)nc1-c1ccccc1 | Active | 
2 | 8.52 | Nc1nc(-c2ccccc2)cc(-c2ccccc2)n1 | Active | 97.4
3 |  | Cc1ccc(-c2nc(N)nc(-c3ccc(C)cc3)c2C)cc1 | Active | 
4 | 8.05 | COc1ccc(-c2cc(-c3ccccc3)nc(N)n2)cc1 | Active | 99.9
5 |  | CCCCc1c(-c2ccccc2)nc(N)nc1-c1ccccc1 | Active | 
6 |  | Cc1ccc(-c2nc(N)nc(-c3ccccc3)c2C)cc1 | Active | 
7 | 6.92 | COc1ccc(-c2cc(-c3ccc(OC)cc3)nc(N)n2)cc1 | Active | 102
8 | 5.73 | CCCCc1c(Cl)nc(N)nc1-c1ccc(C)cc1 | Active | 101
9 | 8.30 | COc1ccc2c(c1)c(CC(=O)O)c(C)n2C(=O)c1ccc(Cl)cc1 [INDOMETHACIN] |  | 
10 | 5.61 | CCCCc1c(-c2ccccc2)nc(N)nc1-c1ccc(C)cc1 | Active | 102
11 |  | COc1ccc(-c2nc(N)nc(-c3ccccc3)c2C)cc1 | Active | 
12 | 5.47 | CCCCc1c(-c2ccccc2)nc(N)nc1-c1ccc(OC)cc1 | Active | 102
13 |  | Nc1nc(Cl)cc(Cl)n1 | inactive | 
14 |  | CCCCc1c(-c2ccc(C)cc2)nc(N)nc1-c1ccc(C)cc1 | Active | 
15 |  | Cc1c(-c2ccccc2)nc(N)nc1-c1ccccc1 | Active | 
16 | 5.39 | CC(=O)Oc1ccccc1C(=O)O [ASPIRIN] |  | 

Row | pIC50 [2] | Structure (SMILES) | inhibition (Mus musculus) | viability at 5 h [1] [%]
17 |  | COc1ccc(-c2nc(N)nc(-c3ccc(OC)cc3)c2C)cc1 | Active | 
18 | 8.05 | Cc1ccc(-c2cc(-c3ccccc3)nc(N)n2)cc1 | Active | 103
19 | 5.43 | CCCCc1c(-c2ccc(OC)cc2)nc(N)nc1-c1ccc(OC)cc1 | Active | 99.1
20 | 5.63 | Cc1ccc(-c2cc(Cl)nc(N)n2)cc1 | Active | 103
21 |  | Cc1c(Cl)nc(N)nc1Cl | inactive | 
22 |  | COc1ccc(-c2cc(-c3ccc(C)cc3)nc(N)n2)cc1 | Active | 
23 |  | CCCCc1c(-c2ccc(C)cc2)nc(N)nc1-c1ccc(OC)cc1 | Active | 
24 | 5.67 | CCCCc1c(Cl)nc(N)nc1-c1ccc(OC)cc1 | Active | 96.6
25 |  | COc1ccc(-c2nc(N)nc(-c3ccc(C)cc3)c2C)cc1 | Active | 
26 | 5.27 | CCCCc1c(Cl)nc(N)nc1Cl | Active | 99.8
27 |  | COc1ccc(-c2nc(N)nc(Cl)c2C)cc1 | Active | 
28 |  | Cc1ccc(-c2nc(N)nc(Cl)c2C)cc1 | Active | 
29 | 7.48 | Cc1ccc(-c2cc(-c3ccc(C)cc3)nc(N)n2)cc1 | Active | 103
30 |  | Cc1c(Cl)nc(N)nc1-c1ccccc1 | Active | 
31 |  | Nc1nc(Cl)cc(-c2ccccc2)n1 | Active | 
32 | 5.55 | COc1ccc(-c2cc(Cl)nc(N)n2)cc1 | Active | 103
